Data reported in patent publication US7863332B2, “Biaromatic compound activators of PPARγ receptors and cosmetic/pharmaceutical compositions comprised thereof” (Galderma Research & Development, priority 2004, dated 2011).
pKd: −log10 of the molar value.

Columns and labels:
PPARδ = molecular target: T1, PPARδ (Homo sapiens, UniProt Q03181); experiment: Cross-curve PPAR transactivation test (PPARδ); format: cell-based; settings: HeLN cells, Gal-hPPARδ, luciferase reporter; cross curves against reference agonist, Schild regression; n.a means not active; read-out: PPARs delta Kd app
T1 sequence (Q03181 171-441 limits assumed): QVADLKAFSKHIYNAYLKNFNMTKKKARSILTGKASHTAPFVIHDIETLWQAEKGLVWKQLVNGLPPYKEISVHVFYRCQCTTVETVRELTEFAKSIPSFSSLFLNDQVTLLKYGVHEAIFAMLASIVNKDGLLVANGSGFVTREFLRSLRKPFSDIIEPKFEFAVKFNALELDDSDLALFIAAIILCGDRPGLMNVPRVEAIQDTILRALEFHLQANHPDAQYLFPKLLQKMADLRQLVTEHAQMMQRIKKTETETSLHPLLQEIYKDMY
Procedure: (§1) The activation of PPAR receptors with an agonist (activator) in HeLN cells leads to the expression of a reporter gene, luciferase, which, in the presence of a substrate, generates light. The modulation of the PPAR receptors is measured by quantifying the luminescence produced after incubating the cells in the presence of a reference agonist. The ligands displace the agonist from its site. The measurement of the activity is performed by quantifying the light produced. This measurement makes it possible to determine the modulatory activity of the compounds according to the invention by determining the constant that is the affinity of the molecule for the PPAR receptor. Since this value can fluctuate depending on the basal activity and the expression of the receptor, it is referred to as Kd apparent (KdApp in nM).
(§2) To determine this constant, “cross curves” of the test product against a reference agonist are produced in a 96-well plate: 10 concentrations of the test product plus a concentration 0 are arranged in a line, and 7 concentrations of the agonist plus a concentration 0 are arranged in a column. This is 88 measurement points for 1 product and 1 receptor. The remaining 8 wells are used for repeatability controls.
(§3) Measurements are also taken for total agonist controls with the same products.
(§4) The HeLN cell lines used are stable transfectants containing the plasmids ERE-βGlob-Luc-SV-Neo (reporter gene) and PPAR (α, δ, γ) Gal-hPPAR. These cells are inoculated into 96-well plates at a rate of 10 000 cells per well in 100 μl of DMEM medium without phenol red and supplemented with 10% of defatted calf serum. The plates are then incubated at 37° C. and 7% CO2 for 16 hours.
(§5) The various dilutions of the test products and of the reference ligand are added at a rate of 5 μl per well. The plates are then incubated for 18 hours at 37° C. and 7% CO2. The culture medium is removed by turning over and 100 μl of a 1:1 PBS/luciferin mixture are added to each well. After 5 minutes, the plates are read by the luminescence detector.

PPARγ = molecular target: T2, PPARγ (Homo sapiens, UniProt P37231); experiment: Cross-curve PPAR transactivation test (PPARγ); format: cell-based; settings: HeLN cells, Gal-hPPARγ, luciferase reporter; cross curves against reference agonist, Schild regression; n.a means not active; read-out: PPAR gamma Kd app
T2 sequence (P37231 238-505 limits assumed): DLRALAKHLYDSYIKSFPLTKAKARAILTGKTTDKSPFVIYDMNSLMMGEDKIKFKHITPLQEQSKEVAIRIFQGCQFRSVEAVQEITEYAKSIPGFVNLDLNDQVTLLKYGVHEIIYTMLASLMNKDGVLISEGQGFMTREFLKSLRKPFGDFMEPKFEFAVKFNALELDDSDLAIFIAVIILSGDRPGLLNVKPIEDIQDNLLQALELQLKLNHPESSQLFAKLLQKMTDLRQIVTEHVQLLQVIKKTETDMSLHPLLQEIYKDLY
Procedure: as §1, §2, §3, §4, §5

PPARα = molecular target: T3, PPARα (Homo sapiens, UniProt Q07869); experiment: Cross-curve PPAR transactivation test (PPARα); format: cell-based; settings: HeLN cells, Gal-hPPARα, luciferase reporter; cross curves against reference agonist, Schild regression; n.a means not active; read-out: PPAR alpha Kd app
T3 sequence (Q07869 202-468 limits assumed): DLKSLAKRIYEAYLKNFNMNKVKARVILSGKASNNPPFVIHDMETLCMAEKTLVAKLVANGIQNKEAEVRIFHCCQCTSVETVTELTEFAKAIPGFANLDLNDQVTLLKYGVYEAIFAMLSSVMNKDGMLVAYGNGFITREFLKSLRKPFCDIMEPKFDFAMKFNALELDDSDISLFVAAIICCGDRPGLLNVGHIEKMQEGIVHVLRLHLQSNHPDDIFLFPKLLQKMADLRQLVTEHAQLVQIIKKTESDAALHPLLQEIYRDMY
Procedure: as §1, §2, §3, §4, §5

| Structure (SMILES) | pKd (PPARδ) | pKd (PPARγ) | melting point [°C] | pKd (PPARα) |
| --- | --- | --- | --- | --- |
| CCCCCCCNC(=O)N(C)c1cccc(-c2ccc(CCC(=O)O)cc2)c1 [Example 2, 3-[3′-(3-heptyl-1-methylureido)biphenyl-4-yl]propanoic acid] | 6.30 | 8.70 | 101 |  |
| CCCCCCCNC(=O)N(C)c1cccc(-c2ccc(CCC(=O)O)c(F)c2)c1 [Example 3, 3-[3-fluoro-3′-(3-heptyl-1-methylureido)biphenyl-4-yl]propanoic acid] | 5.70 | 8.40 |  | 5.70 |
| CCCCCCCNC(=O)N(C)c1cccc(-c2ccc(CCC(=O)NO)cc2)c1 [Example 6, 3-[3′-(3-heptyl-1-methylureido)biphenyl-4-yl]-N-hydroxypropionamide] |  |  | 100 to 101 |  |
| CN(C(=O)Nc1ccc2ccccc2c1)c1cccc(-c2ccc(CCC(=O)O)cc2)c1 [Example 7, 3-[3′-(1-methyl-3-naphthalen-2-ylureido)biphenyl-4-yl]propanoic acid] |  |  | 170 to 171 |  |
| CCCCCCCNC(=S)N(C)c1cccc(-c2ccc(CCC(=O)O)cc2)c1 [Example 8, 3-[3′-(3-heptyl-1-methylthioureido)biphenyl-4-yl]propanoic acid] |  |  | 95 to 96 |  |
| CCCCCCCNC(=O)N(C)c1cccc(-c2ccc(/C=C/C(=O)O)cc2F)c1 [Example 9, (E)-3-[2-fluoro-3′-(3-heptyl-1-methylureido)biphenyl-4-yl]acrylic acid] |  |  | 130 to 131 |  |
| CCCCCCCNC(=O)N(C)c1cccc(-c2ccc(CCC(=O)O)cc2F)c1 [Example 10, 3-[2-fluoro-3′-(3-heptyl-1-methylureido)biphenyl-4-yl]propanoic acid] |  |  | 80 to 82 |  |
| CCCCCCNC(=O)N(C)c1cccc(-c2ccc(CCC(=O)O)cc2)c1 [Example 11, 3-[3′-(3-hexyl-1-methylureido)biphenyl-4-yl]propanoic acid] |  |  | 119 to 120 |  |
| CN(C(=O)Nc1ccc(OCc2ccccc2)cc1)c1cccc(-c2ccc(CCC(=O)O)cc2)c1 [Example 13, 3-{3′-[3-(4-benzyloxyphenyl)-1-methylureido]biphenyl-4-yl}propanoic acid] | 5.70 | 8.70 | 173.5 to 175 |  |
| CCCCc1ccc(NC(=O)N(C)c2cccc(-c3ccc(CCC(=O)O)cc3)c2)cc1 [Example 14, 3-{3′-[3-(4-butylphenyl)-1-methylureido]biphenyl-4-yl}propanoic acid] | 6.30 | 8.70 |  | 6.30 |
| CCCCCCCNC(=O)N(C)c1cccc(-c2ccc(CCC(=O)O)cc2OCCOC)c1 [Example 15, 3-[3′-(3-heptyl-1-methylureido)-2-(2-methoxyethoxy)biphenyl-4-yl]propanoic acid] | 5.70 | 8.70 |  | 5.70 |
| CCCCOc1ccc(NC(=O)N(C)c2cccc(-c3ccc(CCC(=O)O)cc3)c2)cc1 [Example 33, 3-{3′-[3-(4-butoxyphenyl)-1-methylureido]biphenyl-4-yl}propanoic acid] | 6.00 | 8.40 |  |  |
| CCCCOc1ccc(NC(=O)N(CC)c2cccc(-c3ccc(CCC(=O)O)cc3)c2)cc1 [Example 34, 3-{3′-[3-(4-butoxyphenyl)-1-ethylureido]biphenyl-4-yl}propanoic acid] | 8.10 | 8.70 |  | 6.30 |
| CCCCCCCNC(=O)N(C)c1cccc(-c2ccc(CCC(=O)O)cc2OCCCCO)c1 [Example 40, 3-[3′-(3-heptyl-1-methylureido)-2-(4-hydroxybutoxy)biphenyl-4-yl]propanoic acid] |  | 9.00 |  | 5.10 |
| CCCCOc1cc(CCC(=O)O)ccc1-c1cccc(N(C)C(=O)Nc2ccccc2)c1 [Example 48, 3-[2-butoxy-3′-(1-methyl-3-phenylureido)biphenyl-4-yl]propanoic acid] |  | 8.70 |  | 5.70 |

Other lines, results leading:

| pKd (PPARδ) | pKd (PPARγ) | melting point [°C] | pKd (PPARα) | Structure (SMILES) |
| --- | --- | --- | --- | --- |
|  | 9.00 |  | 6.30 | CCCCCCCNC(=O)N(C)c1cccc(-c2ccc(CCC(=O)O)cc2OCCCCl)c1 [Example 17, 3-[2-(3-chloropropoxy)-3′-(3-heptyl-1-methylureido)biphenyl-4-yl]propanoic acid] |
| 6.60 | 8.40 |  | 5.70 | CCCCCCCNC(=O)N(C)c1cccc(-c2ccc(CCC(=O)O)cc2OC)c1 [Example 18, 3-[3′-(3-heptyl-1-methylureido)-2-methoxybiphenyl-4-yl]propanoic acid] |
| 5.70 | 8.40 |  | 6.30 | CCCCCCCNC(=O)N(C)c1cccc(-c2ccc(/C=C/C(=O)O)cc2OCc2ccccc2)c1 [Example 24, (E)-3-[2-benzyloxy-3′-(3-heptyl-1-methylureido)biphenyl-4-yl]acrylic acid] |
| 6.92 | 9.60 |  | 6.30 | CCCCCCCNC(=O)N(C)c1cccc(-c2ccc(CCC(=O)O)cc2OCCC)c1 [Example 25, 3-[3′-(3-heptyl-1-methylureido)-2-propoxybiphenyl-4-yl]propanoic acid] |
| 6.00 | 9.00 |  |  | CCCCCCCNC(=O)N(C)c1cccc(-c2ccc(CCC(=O)O)cc2OCC2CC2)c1 [Example 35, 3-[2-cyclopropylmethoxy-3′-(3-heptyl-1-methylureido)biphenyl-4-yl]propanoic acid] |
| 5.70 | 8.70 |  | 6.60 | CCCCCCCNC(=O)N(C)c1cccc(-c2ccc(CCC(=O)O)cc2OCCC(F)(F)F)c1 [Example 37, 3-[3′-(3-heptyl-1-methylureido)-2-(3,3,3-trifluoropropoxy)biphenyl-4-yl]propanoic acid] |
|  | 9.00 |  | 5.40 | CCCCCCCNC(=O)N(C)c1cccc(-c2ccc(CCC(=O)O)cc2OCc2ccccc2)c1 [Example 42, 3-[2-benzyloxy-3′-(3-heptyl-1-methylureido)biphenyl-4-yl]propanoic acid] |
|  | 8.70 |  | 5.70 | CCCCCCCNC(=O)N(C)c1cccc(-c2ccc(CCC(=O)O)cc2OCc2cccc(F)c2)c1 [Example 43, 3-[2-(3-fluorobenzyloxy)-3′-(3-heptyl-1-methylureido)biphenyl-4-yl]propanoic acid] |
|  | 9.60 |  | 6.92 | CCCCCCCNC(=O)N(C)c1cccc(-c2ccc(CCC(=O)O)cc2OCCCCC)c1 [Example 45, 3-[3′-(3-heptyl-1-methylureido)-2-pentyloxybiphenyl-4-yl]propanoic acid] |
|  | 9.60 |  | 7.52 | CCCCCNC(=O)N(C)c1cccc(-c2ccc(CCC(=O)O)cc2OCCCCC)c1 [Example 46, 3-[3′-(1-methyl-3-pentylureido)-2-pentyloxybiphenyl-4-yl]propanoic acid] |
|  | 8.70 |  | 6.00 | CCCCCCCNC(=O)N(C)c1cccc(-c2ccc(CCC(=O)O)cc2OCCOCC)c1 [Example 47, 3-[2-(2-ethoxyethoxy)-3′-(3-heptyl-1-methylureido)biphenyl-4-yl]propanoic acid] |
|  | 8.70 |  | 5.70 | CCCCCNC(=O)N(C)c1cccc(-c2ccc(CCC(=O)O)cc2OCCOCC)c1 [Example 49, 3-[2-(2-ethoxyethoxy)-3′-(1-methyl-3-pentylureido)biphenyl-4-yl]propanoic acid] |
